Measured values as given in ChEMBL document CHEMBL5653631, “A Potent and Selective ULK1 Inhibitor Suppresses Autophagy and Sensitizes Cancer Cells to Nutrient Stress” (iScience, 2018).
Blank lines part the entries; values can stand above or below the compound they belong to.

Columns and labels:
[1] = target: BDNF/NT-3 growth factors receptor (Homo sapiens) (UniProt Q16620); test: Inhibition of human recombinant TRKB at 500 nM related to control ULK1
[2] = target: Protein kinase C gamma type (Homo sapiens) (UniProt P05129); test: Inhibition of human recombinant PKCg at 500 nM in presence of ATP by radiometric assay relative to control
[3] = target: Serine/threonine-protein kinase MARK1 (Homo sapiens) (UniProt Q9P0L2); test: Inhibition of human recombinant MARK1 at 500 nM related to control ULK1
[4] = target: T1, Serine/threonine-protein kinase DCLK2 (Homo sapiens) (UniProt Q8N568); test: Inhibition of human recombinant DCAMKL2 at 500 nM in presence of ATP by radiometric assay relative to control
T1 sequence (whole entry): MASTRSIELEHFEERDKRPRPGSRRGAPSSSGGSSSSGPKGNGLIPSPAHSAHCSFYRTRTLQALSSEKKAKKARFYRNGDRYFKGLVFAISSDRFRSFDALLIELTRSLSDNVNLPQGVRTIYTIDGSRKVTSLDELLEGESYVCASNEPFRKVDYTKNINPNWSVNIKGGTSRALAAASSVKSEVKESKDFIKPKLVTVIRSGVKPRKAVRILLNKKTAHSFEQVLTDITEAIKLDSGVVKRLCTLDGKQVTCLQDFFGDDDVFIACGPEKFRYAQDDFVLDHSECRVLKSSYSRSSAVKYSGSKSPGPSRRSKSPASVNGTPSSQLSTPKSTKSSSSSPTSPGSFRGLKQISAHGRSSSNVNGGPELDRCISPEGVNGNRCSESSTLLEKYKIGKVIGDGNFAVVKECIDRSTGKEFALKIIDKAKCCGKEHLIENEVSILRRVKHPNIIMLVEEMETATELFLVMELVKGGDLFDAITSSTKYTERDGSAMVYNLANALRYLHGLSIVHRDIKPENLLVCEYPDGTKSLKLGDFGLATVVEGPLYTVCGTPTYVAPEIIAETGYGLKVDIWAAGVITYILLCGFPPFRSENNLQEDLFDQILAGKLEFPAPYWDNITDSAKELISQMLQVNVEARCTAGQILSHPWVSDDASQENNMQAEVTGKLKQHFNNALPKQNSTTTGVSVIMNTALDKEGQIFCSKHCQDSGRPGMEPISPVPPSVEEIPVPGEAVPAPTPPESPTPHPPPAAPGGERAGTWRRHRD

[5] = target: Protein kinase C iota type (Homo sapiens) (UniProt P41743); test: Inhibition of human recombinant PKCi at 500 nM in presence of ATP by radiometric assay relative to control
Homo sapiens = organism: Homo sapiens; test: Inhibition of human recombinant KHS1 at 500 nM related to control ULK1
[6] = target: Serine/threonine-protein kinase/endoribonuclease IRE1 (Homo sapiens) (UniProt O75460); test: Inhibition of human recombinant IRE1 at 500 nM in presence of ATP by radiometric assay relative to control
[7] = target: Mitogen-activated protein kinase kinase kinase 20 (Homo sapiens) (UniProt Q9NYL2); test: Inhibition of human recombinant ZAK at 40 nM in presence of ATP by radiometric assay relative to control
[8] = target: T2, Mitogen-activated protein kinase kinase kinase 2 (Homo sapiens) (UniProt Q9Y2U5); test: Inhibition of human recombinant MAP3K2 at 40 nM in presence of ATP by radiometric assay relative to control
T2 sequence (whole entry): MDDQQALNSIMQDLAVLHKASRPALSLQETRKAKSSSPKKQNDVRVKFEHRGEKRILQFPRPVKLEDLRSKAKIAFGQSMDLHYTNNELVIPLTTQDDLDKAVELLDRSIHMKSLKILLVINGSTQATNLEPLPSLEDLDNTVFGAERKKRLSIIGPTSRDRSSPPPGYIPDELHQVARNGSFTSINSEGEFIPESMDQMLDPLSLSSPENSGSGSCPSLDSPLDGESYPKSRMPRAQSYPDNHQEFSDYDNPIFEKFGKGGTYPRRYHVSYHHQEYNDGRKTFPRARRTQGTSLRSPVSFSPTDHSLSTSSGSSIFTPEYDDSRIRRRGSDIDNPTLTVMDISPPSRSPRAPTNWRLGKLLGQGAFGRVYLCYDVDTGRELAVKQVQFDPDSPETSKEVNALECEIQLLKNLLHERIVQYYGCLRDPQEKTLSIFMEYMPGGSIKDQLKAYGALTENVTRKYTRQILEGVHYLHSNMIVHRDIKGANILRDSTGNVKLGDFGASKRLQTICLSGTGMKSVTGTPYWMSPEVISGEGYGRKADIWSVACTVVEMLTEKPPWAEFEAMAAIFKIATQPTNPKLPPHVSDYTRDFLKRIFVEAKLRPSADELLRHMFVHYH

[9] = target: Serine/threonine-protein kinase NIM1 (Homo sapiens) (UniProt Q8IY84); test: Inhibition of human recombinant NIM1 at 40 nM related to control ULK1
[10] = target: Calcium/calmodulin-dependent protein kinase type II subunit alpha (Homo sapiens) (UniProt Q9UQM7); test: Inhibition of human recombinant CaMK2a at 40 nM related to control ULK1
[11] = target: Fibroblast growth factor receptor 2 (Homo sapiens) (UniProt P21802); test: Inhibition of human recombinant FGFR2 at 15 nM related to control ULK1
[12] = target: Serine/threonine-protein kinase 24 (Homo sapiens) (UniProt Q9Y6E0); test: Inhibition of human recombinant MST3 at 15 nM related to control ULK1
Sequence of Serine/threonine-protein kinase 24 (Homo sapiens) (Q9Y6E0 whole entry, looked up): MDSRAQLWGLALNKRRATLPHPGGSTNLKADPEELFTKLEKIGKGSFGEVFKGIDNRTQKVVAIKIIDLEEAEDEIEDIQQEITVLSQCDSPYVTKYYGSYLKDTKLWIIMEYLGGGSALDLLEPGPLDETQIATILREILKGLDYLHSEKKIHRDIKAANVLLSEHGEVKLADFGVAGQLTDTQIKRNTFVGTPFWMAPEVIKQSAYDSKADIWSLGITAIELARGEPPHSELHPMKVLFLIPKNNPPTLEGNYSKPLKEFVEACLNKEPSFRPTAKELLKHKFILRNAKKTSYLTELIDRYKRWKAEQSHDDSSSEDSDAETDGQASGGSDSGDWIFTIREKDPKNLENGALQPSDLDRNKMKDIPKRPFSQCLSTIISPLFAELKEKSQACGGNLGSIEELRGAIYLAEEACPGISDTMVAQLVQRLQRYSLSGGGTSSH

Sequence of Protein kinase C iota type (Homo sapiens) (P41743 whole entry, looked up): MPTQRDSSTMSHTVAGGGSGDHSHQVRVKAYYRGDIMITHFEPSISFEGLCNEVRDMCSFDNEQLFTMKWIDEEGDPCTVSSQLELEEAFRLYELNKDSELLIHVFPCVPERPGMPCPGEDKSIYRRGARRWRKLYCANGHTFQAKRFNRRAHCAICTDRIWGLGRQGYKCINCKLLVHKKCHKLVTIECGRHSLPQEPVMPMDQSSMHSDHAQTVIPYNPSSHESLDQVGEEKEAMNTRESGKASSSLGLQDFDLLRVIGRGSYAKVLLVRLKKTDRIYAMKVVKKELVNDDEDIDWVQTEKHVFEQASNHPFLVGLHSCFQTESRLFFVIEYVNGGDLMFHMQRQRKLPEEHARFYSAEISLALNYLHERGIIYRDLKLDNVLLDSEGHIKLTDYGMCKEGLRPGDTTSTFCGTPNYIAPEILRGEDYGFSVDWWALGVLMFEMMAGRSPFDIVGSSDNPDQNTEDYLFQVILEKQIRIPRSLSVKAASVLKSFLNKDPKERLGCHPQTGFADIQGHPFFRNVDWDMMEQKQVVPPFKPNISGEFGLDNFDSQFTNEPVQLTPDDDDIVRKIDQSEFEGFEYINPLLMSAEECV
Sequence of Calcium/calmodulin-dependent protein kinase type II subunit alpha (Homo sapiens) (Q9UQM7 whole entry): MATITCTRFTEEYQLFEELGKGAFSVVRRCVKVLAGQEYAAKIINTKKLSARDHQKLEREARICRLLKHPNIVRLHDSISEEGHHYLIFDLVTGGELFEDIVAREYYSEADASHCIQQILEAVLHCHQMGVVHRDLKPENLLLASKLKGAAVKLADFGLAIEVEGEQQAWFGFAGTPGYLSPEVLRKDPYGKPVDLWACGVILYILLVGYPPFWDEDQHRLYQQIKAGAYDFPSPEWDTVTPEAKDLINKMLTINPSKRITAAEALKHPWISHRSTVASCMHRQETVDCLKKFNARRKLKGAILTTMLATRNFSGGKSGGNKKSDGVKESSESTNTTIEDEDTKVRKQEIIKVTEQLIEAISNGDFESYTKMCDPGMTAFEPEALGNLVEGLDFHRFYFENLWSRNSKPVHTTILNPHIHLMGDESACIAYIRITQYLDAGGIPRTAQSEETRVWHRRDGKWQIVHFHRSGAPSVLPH
Sequence of Fibroblast growth factor receptor 2 (Homo sapiens) (P21802 22-821 limits assumed): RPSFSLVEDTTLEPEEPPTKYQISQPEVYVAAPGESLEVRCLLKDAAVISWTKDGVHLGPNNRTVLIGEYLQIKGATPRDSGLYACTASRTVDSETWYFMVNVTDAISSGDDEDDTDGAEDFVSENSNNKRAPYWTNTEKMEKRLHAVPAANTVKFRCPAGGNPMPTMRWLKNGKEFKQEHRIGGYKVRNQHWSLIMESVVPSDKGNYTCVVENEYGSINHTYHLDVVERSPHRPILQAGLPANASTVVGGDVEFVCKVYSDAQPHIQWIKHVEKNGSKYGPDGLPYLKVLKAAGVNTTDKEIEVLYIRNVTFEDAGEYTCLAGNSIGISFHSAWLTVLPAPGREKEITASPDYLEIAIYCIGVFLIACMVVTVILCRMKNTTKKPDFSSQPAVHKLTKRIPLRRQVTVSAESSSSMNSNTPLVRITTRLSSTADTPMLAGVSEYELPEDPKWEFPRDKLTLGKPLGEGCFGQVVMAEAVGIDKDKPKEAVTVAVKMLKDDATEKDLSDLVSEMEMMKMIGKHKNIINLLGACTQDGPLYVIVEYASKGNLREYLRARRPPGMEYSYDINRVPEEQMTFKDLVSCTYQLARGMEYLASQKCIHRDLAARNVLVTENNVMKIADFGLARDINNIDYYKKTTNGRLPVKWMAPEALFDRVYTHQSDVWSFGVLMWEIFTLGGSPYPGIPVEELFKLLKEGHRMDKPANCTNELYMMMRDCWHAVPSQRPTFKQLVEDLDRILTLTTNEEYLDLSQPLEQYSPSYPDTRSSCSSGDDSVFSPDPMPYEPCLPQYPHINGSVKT
Sequence of BDNF/NT-3 growth factors receptor (Homo sapiens) (Q16620 32-822 limits assumed): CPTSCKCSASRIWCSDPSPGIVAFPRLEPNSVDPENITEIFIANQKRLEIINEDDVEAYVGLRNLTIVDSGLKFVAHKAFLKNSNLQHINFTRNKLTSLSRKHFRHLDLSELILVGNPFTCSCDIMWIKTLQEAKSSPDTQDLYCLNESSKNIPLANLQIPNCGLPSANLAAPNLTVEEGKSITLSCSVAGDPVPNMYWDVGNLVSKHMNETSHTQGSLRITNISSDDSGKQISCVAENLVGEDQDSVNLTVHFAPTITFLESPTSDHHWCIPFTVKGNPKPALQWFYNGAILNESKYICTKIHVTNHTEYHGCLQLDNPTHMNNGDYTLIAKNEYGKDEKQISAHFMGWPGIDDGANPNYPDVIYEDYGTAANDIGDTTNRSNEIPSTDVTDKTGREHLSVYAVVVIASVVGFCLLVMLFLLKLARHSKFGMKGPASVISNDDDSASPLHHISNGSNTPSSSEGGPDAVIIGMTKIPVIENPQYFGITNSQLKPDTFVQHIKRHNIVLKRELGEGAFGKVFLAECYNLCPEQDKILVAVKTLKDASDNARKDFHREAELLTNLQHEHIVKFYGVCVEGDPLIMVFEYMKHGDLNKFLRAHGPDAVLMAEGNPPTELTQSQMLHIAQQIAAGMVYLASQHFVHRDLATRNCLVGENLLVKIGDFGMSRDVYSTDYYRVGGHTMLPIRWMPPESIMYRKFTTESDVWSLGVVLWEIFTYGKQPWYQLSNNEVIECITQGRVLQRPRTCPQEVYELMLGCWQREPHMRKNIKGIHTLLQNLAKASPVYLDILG
Sequence of Serine/threonine-protein kinase NIM1 (Homo sapiens) (Q8IY84 whole entry): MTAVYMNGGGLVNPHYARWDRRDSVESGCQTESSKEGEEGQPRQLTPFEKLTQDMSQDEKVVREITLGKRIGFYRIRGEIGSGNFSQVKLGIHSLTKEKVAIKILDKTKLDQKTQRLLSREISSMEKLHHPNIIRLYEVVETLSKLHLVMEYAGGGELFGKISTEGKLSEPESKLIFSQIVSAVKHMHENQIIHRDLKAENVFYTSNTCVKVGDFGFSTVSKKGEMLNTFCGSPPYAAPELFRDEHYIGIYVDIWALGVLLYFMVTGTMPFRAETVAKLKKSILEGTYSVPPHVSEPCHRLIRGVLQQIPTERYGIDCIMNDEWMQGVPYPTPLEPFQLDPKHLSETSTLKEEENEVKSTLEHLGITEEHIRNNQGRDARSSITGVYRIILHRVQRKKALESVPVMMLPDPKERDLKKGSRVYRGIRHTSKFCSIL
Sequence of Mitogen-activated protein kinase kinase kinase 20 (Homo sapiens) (Q9NYL2 2-800 limits assumed): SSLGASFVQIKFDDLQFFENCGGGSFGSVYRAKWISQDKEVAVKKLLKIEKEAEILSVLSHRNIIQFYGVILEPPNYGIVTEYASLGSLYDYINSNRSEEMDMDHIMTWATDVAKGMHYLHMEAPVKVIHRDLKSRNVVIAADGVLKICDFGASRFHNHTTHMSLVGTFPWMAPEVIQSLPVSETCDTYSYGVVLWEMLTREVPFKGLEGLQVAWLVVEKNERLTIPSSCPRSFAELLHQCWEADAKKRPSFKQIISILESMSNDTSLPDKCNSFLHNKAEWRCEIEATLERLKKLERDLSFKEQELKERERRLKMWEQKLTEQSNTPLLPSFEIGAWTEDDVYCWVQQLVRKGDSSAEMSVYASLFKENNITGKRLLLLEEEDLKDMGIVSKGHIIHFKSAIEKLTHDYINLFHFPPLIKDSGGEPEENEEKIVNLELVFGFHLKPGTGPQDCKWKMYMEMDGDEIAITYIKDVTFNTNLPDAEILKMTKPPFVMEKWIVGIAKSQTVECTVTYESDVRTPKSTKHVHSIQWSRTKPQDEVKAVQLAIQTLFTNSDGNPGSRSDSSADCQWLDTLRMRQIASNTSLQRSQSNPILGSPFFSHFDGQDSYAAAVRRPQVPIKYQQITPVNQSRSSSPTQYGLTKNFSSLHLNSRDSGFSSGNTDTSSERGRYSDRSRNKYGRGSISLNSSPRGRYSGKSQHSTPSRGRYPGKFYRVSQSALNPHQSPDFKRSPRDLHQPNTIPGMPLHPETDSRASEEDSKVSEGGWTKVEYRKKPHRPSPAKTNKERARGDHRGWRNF

fold change (FC) [1]: 0.65
inhibition [2]: 9%
fold change (FC) [3]: 0.73
inhibition [4]: 0%
inhibition [5]: 0%
fold change (FC) (Homo sapiens): 0.15
inhibition [6]: 0%
Compound: CNC(=O)c1ccccc1Oc1nc(Nc2cc(OC)c(OC)c(OC)c2)ncc1Br

inhibition [7]: 0%
inhibition [8]: 0%
fold change (FC) [9]: 0
fold change (FC) [10]: 0
Compound: O=C(N[C@@H](C1CC1)C(F)(F)F)c1cc(-c2cnn3cc(-c4ccc(F)cc4)cnc23)cs1

fold change (FC) [11]: 0
fold change (FC) [12]: 0
Compound: CC(C)[C@H](NC(=O)c1cc(-c2cnn3cc(-c4ccc(OCCN5CCCCC5)cc4)cnc23)cs1)C(F)(F)F
